Laboratory results taken from BindingDB's records for PubMed 9808667 (Dupont Pharmaceuticals, 1998).
Square brackets hold non-standard residues; d marks the D form. Peptide text beside a SMILES is read from it.

Target: T1, Galanin receptor type 1 (Homo sapiens, UniProt P47211)
T1 sequence (P47211 whole entry): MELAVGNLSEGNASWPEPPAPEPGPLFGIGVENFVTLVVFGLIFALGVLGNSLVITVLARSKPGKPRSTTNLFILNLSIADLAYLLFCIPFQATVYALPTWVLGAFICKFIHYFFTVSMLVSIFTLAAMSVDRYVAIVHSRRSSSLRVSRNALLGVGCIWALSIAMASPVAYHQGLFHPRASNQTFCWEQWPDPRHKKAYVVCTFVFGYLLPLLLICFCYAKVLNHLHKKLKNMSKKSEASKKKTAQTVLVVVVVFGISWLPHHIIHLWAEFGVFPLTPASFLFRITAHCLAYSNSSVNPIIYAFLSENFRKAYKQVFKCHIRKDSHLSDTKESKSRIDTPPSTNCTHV

Ki: 685 nM
Compound: CC(C)C[C@H](NC(=O)[C@H](CC(C)C)NC(=O)[C@@H](Cc1c[nH]c2ccccc12)NC(=O)[C@H](Cc1ccccc1)NC(=O)[C@@H](Cc1c[nH]c2ccccc12)NC(=O)[C@H](CCC(N)=O)NC(=O)[C@H](CCC(N)=O)NC(=O)[C@@H]1CCCN1C(=O)[C@H](CCCCN)NC(=O)[C@@H]1CCCN1C(=O)[C@@H](CCCNC(=N)N)NC(=O)[C@@H]1CCCN1C(=O)CNC(=O)[C@H](CC(C)C)NC(=O)[C@H](CC(C)C)NC(=O)[C@H](Cc1ccc(O)cc1)NC(=O)CNC(=O)[C@H](C)NC(=O)[C@H](CO)NC(=O)[C@H](CC(N)=O)NC(=O)[C@H](CC(C)C)NC(=O)[C@@H](NC(=O)[C@H](Cc1c[nH]c2ccccc12)NC(=O)CN)[C@@H](C)O)C(N)=O [Gal(1-13)-Std I] (H-GWTLNSAGYLLGP[dR]PKPQQ[dW]F[dW]LL-NH2)
